In patent US20220064214A1, “NOVEL PEPTIDES AND USES THEREOF” (CENNA BIOSCIENCES INC., priority 2019, published 2022):
Ends that are not written are not given here.

Assay: Metabolic stability of peptides in fresh human plasma (LC/MS/MS)
Type: in vitro ADME
Description: P8, 8M1, and 8M1D were generated according to Example 1 with purities ranging from 98.0% to 99.0%. A primary 1.00 mM stock solution was prepared in either acetonitrile or acetonitrile:water (1:1, v/v) for each peptide. A 0.200 mM working stock was made from the primary stock in acetonitrile:water (1:1, v/v), which was used for the reactions. The primary and working stock solutions were stored at −20° C. when not in use, and they were kept at room temperature for as short a time as possible when in use. Fresh human plasma were maintained by adding sodium heparin as an anticoagulant.
The incubation procedures started when 5.00 μL of 0.2 mM (working stock solutions) of different peptides were added to 0.995 mL of fresh human plasma in a 1.7-mL snap tube. After 3, 8 and 24 hours of incubation, duplicate 50.0 μL aliquots of plasma were removed and placed into extraction tubes containing 150 μL of methanol, which served to quench any reactions, and thus incubations were ended. For each time point, the aliquotes were immediately extracted by vortex mixing and centrifugation. Resulting supernates were stored in High-Performance Liquid Chromatography (HPLC) vials and analyzed by LC/MS/MS after all samples were extracted. Valacyclovir was used as a positive control.
LC/MS/MS analysis of the incubation solutions was conducted by initial separation of the test article peaks using chromatography prior to detection by the mass spectrometer. The LC/MS system was comprised of a HPLC coupled with a TQS-Micro or Quattro Premier (Waters, Milford, Mass.). The mobile phase was nebulized using heated nitrogen in a Z spray source/interface set to electrospray in positive ionization mode for the peptides. The ionized peptides were detected using Tandem Quadropole Mass Spectrometry (MS/MS). The data was acquired using MassLynx (Waters, Milford, Mass.).
HPLC for the peptides and Valacyclovir control were performed with no guard columns, with a flow rate at 0.3 mL/min, with column temperature at 40° C., and autosampler temperature at 10° C. The column for peptides was MacMod ACE 2 Excel C18PFP, 100×2.1-mm, 2.0 μm, and the column for the control was Waters Atlantis T3, 150×2.1-mm, 5.0 μm. The injection loop and volumn for peptides were 50.0 μL and 20.0 μL respectively, and the ones for controls were 20.0 μL and 2.00 μL. For the Mass Spectrometer for the peptides and the Valacyclovir control, the source temperature was set to be 150° C., desolvation temperature was set to be 350° C., and polarity was set to be positive mode of electrospray ionization. Other parameters in HPLC and Mass Spectrometer are shown in Table 2.1, Table 2.2 and Table 3 below.

stability in fresh human plasma (in words): relatively stable | % Remaining (fresh human plasma, 0 h incubation): 100% | remaining at 3 h, 1 µM (fresh human plasma, 3 h incubation): 115% | remaining at 8 h, 1 µM (fresh human plasma, 8 h incubation): 99.7% | remaining at 24 h, 1 µM (fresh human plasma, 24 h incubation): 72%
Substance: DEEEDEEL-OH [P8, DEEEDEEL, reference compound]
